Measurements taken from the supplement of paper PMC10627819.

Legend:
Assay in all cases: Bliss interaction score (quartile over a dose matrix) (fitness difference); higher = more antagonism (negative = synergy)
B. subtilis 168 = tested on: B. subtilis 168
Method in brief: (§1)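 The Bliss score was calculated by subtracting the expected fitness, the product of single-drug values, from the observed fitness. OD595 at entry into stationary phase, over the plate's robust no-drug mean and capped at 1, served as the fitness readout. Single-drug values were inferred from combination data, and scores are summarised by quartiles across technical, biological and donor/recipient replicates.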

S. aureus DSM 20231 = tested on: S. aureus DSM 20231
Method in brief: as §1

S. aureus Newman = tested on: S. aureus Newman
Method in brief: as §1

S. pneumoniae D39V = tested on: S. pneumoniae D39V
Method in brief: as §1
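Note: first quartile when negative (synergy) and third quartile when positive (antagonism).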

SMILES: CC1(C)S[C@@H]2[C@H](NC(=O)[C@H](N)c3ccc(O)cc3)C(=O)N2[C@H]1C(=O)O [Amoxicillin] + CO[C@@]12[C@H](COC(N)=O)C3=C(C(=O)C(C)=C(N)C3=O)N1C[C@@H]1N[C@@H]12 [MitomycinC]
- Bliss interaction score (B. subtilis 168): 0.0389
- Bliss interaction score (S. aureus DSM 20231): -0.0743
- Bliss interaction score (S. aureus Newman): 0.0558
- Bliss interaction score (S. pneumoniae D39V): 0.0839

SMILES: CC1(C)S[C@@H]2[C@H](NC(=O)[C@H](N)c3ccc(O)cc3)C(=O)N2[C@H]1C(=O)O [Amoxicillin] + N[C@@H]1CONC1=O [CycloserineD]
- Bliss interaction score (B. subtilis 168): 0.187
- Bliss interaction score (S. aureus DSM 20231): -0.0593
- Bliss interaction score (S. aureus Newman): 0.035
- Bliss interaction score (S. pneumoniae D39V): -0.108

SMILES: CC1(C)S[C@@H]2[C@H](NC(=O)[C@H](N)c3ccc(O)cc3)C(=O)N2[C@H]1C(=O)O [Amoxicillin] + O=C(O)[C@H]1/C(=C/CO)O[C@@H]2CC(=O)N21 [Clavulanic]
- Bliss interaction score (B. subtilis 168): -0.152
- Bliss interaction score (S. aureus DSM 20231): -0.114
- Bliss interaction score (S. aureus Newman): -0.117
- Bliss interaction score (S. pneumoniae D39V): -0.0705

SMILES: CC1(C)S[C@@H]2[C@H](NC(=O)[C@H](N)c3ccc(O)cc3)C(=O)N2[C@H]1C(=O)O [Amoxicillin] + Oc1cc(Cl)ccc1Oc1ccc(Cl)cc1Cl [Triclosan]
- Bliss interaction score (B. subtilis 168): -0.0443
- Bliss interaction score (S. aureus DSM 20231): 0.028
- Bliss interaction score (S. aureus Newman): 0.0346
- Bliss interaction score (S. pneumoniae D39V): -0.0734

SMILES: CO/N=C(\C(=O)N[C@@H]1C(=O)N2C(C(=O)[O-])=C(C[N+]3(C)CCCC3)CS[C@H]12)c1csc(N)n1 [Cefepime] + CC1(C)S[C@@H]2[C@H](NC(=O)Cc3ccccc3)C(=O)N2[C@H]1C(=O)O [PenicillinG]
- Bliss interaction score (B. subtilis 168): -0.0668
- Bliss interaction score (S. aureus DSM 20231): 0.0733
- Bliss interaction score (S. aureus Newman): -0.0463
- Bliss interaction score (S. pneumoniae D39V): -0.0873

SMILES: CO/N=C(\C(=O)N[C@@H]1C(=O)N2C(C(=O)[O-])=C(C[N+]3(C)CCCC3)CS[C@H]12)c1csc(N)n1 [Cefepime] + CC(=O)O[C@H]1C[C@@]2(C)[C@@H](C[C@@H](O)[C@H]3[C@@]4(C)CC[C@@H](O)[C@@H](C)[C@@H]4CC[C@@]32C)/C1=C(\CCC=C(C)C)C(=O)O [Fusidic acid]
- Bliss interaction score (B. subtilis 168): 0.0845
- Bliss interaction score (S. aureus DSM 20231): 0.062
- Bliss interaction score (S. aureus Newman): 0.0735
- Bliss interaction score (S. pneumoniae D39V): 0.174

SMILES: CO/N=C(\C(=O)N[C@@H]1C(=O)N2C(C(=O)[O-])=C(C[N+]3(C)CCCC3)CS[C@H]12)c1csc(N)n1 [Cefepime] + CCC[C@@H]1C[C@@H](C(=O)N[C@@H]([C@H]2O[C@H](SC)[C@H](O)[C@@H](O)[C@H]2O)[C@H](C)Cl)N(C)C1 [Clindamycin]
- Bliss interaction score (B. subtilis 168): 0.0651
- Bliss interaction score (S. aureus DSM 20231): 0.0679
- Bliss interaction score (S. aureus Newman): 0.0778
- Bliss interaction score (S. pneumoniae D39V): 0.162

SMILES: CO/N=C(\C(=O)N[C@@H]1C(=O)N2C(C(=O)[O-])=C(C[N+]3(C)CCCC3)CS[C@H]12)c1csc(N)n1 [Cefepime] + CC[C@H]1OC(=O)[C@H](C)C(=O)[C@H](C)[C@@H](O[C@@H]2O[C@H](C)C[C@H](N(C)C)[C@H]2O)[C@](C)(OC)C[C@@H](C)C(=O)[C@H](C)[C@H]2N(CCCCn3cnc(-c4cccnc4)c3)C(=O)O[C@]12C [Telithromycin]
- Bliss interaction score (B. subtilis 168): 0.122
- Bliss interaction score (S. aureus DSM 20231): 0.0789
- Bliss interaction score (S. aureus Newman): 0.0252
- Bliss interaction score (S. pneumoniae D39V): -0.0487

SMILES: CO/N=C(\C(=O)N[C@@H]1C(=O)N2C(C(=O)[O-])=C(C[N+]3(C)CCCC3)CS[C@H]12)c1csc(N)n1 [Cefepime] + CC[C@H]1OC(=O)[C@H](C)[C@@H](O[C@H]2C[C@@](C)(OC)[C@@H](O)[C@H](C)O2)[C@H](C)[C@@H](O[C@@H]2O[C@H](C)C[C@H](N(C)C)[C@H]2O)[C@](C)(O)C[C@@H](C)C(=O)[C@H](C)[C@@H](O)[C@]1(C)O [Erythromycin]
- Bliss interaction score (B. subtilis 168): 0.0672
- Bliss interaction score (S. aureus DSM 20231): 0.0701
- Bliss interaction score (S. aureus Newman): 0.0704
- Bliss interaction score (S. pneumoniae D39V): 0.0938

SMILES: CO/N=C(\C(=O)N[C@@H]1C(=O)N2C(C(=O)[O-])=C(C[N+]3(C)CCCC3)CS[C@H]12)c1csc(N)n1 [Cefepime] + CC[C@H]1OC(=O)[C@H](C)[C@@H](O[C@H]2C[C@@](C)(OC)[C@@H](O)[C@H](C)O2)[C@H](C)[C@@H](O[C@@H]2O[C@H](C)C[C@H](N(C)C)[C@H]2O)[C@](C)(OC)C[C@@H](C)C(=O)[C@H](C)[C@@H](O)[C@]1(C)O [Clarithromycin]
- Bliss interaction score (B. subtilis 168): 0.0395
- Bliss interaction score (S. aureus DSM 20231): 0.128
- Bliss interaction score (S. aureus Newman): 0.0613
- Bliss interaction score (S. pneumoniae D39V): 0.07

SMILES: CO/N=C(\C(=O)N[C@@H]1C(=O)N2C(C(=O)[O-])=C(C[N+]3(C)CCCC3)CS[C@H]12)c1csc(N)n1 [Cefepime] + CN(C)[C@@H]1C(O)=C(C(N)=O)C(=O)[C@@]2(O)C(O)=C3C(=O)c4c(O)ccc(Cl)c4[C@@](C)(O)[C@H]3C[C@@H]12 [Clortetracycline]
- Bliss interaction score (B. subtilis 168): 0.0651
- Bliss interaction score (S. aureus DSM 20231): 0.0809
- Bliss interaction score (S. aureus Newman): 0.105
- Bliss interaction score (S. pneumoniae D39V): 0.163

SMILES: CO/N=C(\C(=O)N[C@@H]1C(=O)N2C(C(=O)[O-])=C(C[N+]3(C)CCCC3)CS[C@H]12)c1csc(N)n1 [Cefepime] + CN[C@H](CC(C)C)C(=O)N[C@H]1C(=O)N[C@@H](CC(N)=O)C(=O)N[C@H]2C(=O)N[C@H]3C(=O)N[C@H](C(=O)N[C@H](C(=O)O)c4cc(O)cc(O)c4-c4cc3ccc4O)[C@H](O[C@H]3C[C@](C)(N)[C@@H](O)[C@H](C)O3)c3ccc(c(Cl)c3)Oc3cc2cc(c3O[C@@H]2O[C@H](CO)[C@@H](O)[C@H](O)[C@H]2O[C@H]2C[C@](C)(NCc3ccc(-c4ccc(Cl)cc4)cc3)[C@@H](O)[C@H](C)O2)Oc2ccc(cc2Cl)[C@H]1O [Oritavancin]
- Bliss interaction score (B. subtilis 168): 0.0342
- Bliss interaction score (S. aureus DSM 20231): 0.0977
- Bliss interaction score (S. aureus Newman): 0.0749
- Bliss interaction score (S. pneumoniae D39V): -0.0811

SMILES: CO/N=C(\C(=O)N[C@@H]1C(=O)N2C(C(=O)[O-])=C(C[N+]3(C)CCCC3)CS[C@H]12)c1csc(N)n1 [Cefepime] + CO/N=C(\C(=O)N[C@@H]1C(=O)N2C(C(=O)O)=C(COC(C)=O)CS[C@H]12)c1csc(N)n1 [Cefotaxime]
- Bliss interaction score (B. subtilis 168): 0.0354
- Bliss interaction score (S. aureus DSM 20231): 0.0767
- Bliss interaction score (S. aureus Newman): 0.0764
- Bliss interaction score (S. pneumoniae D39V): 0.0698
